Assay [1] in a line: Luminescence-based counterscreen assay for KLF5 inhibitors: dose response cell-based high throughput screening assay to identify cytotoxic compounds using the IEC-6 intestinal epithelial cell line. [Related pubchem assays: 1700 (Primary screen.), 1834 (Confirmation screen.), 1858 (Summary AID.), 1905 (Counterscreen.)]. Format: functional. For orientation: The purpose of a counterscreen is to sort out artefacts and off-target activity.

Assay [2] deals with BJ. The experiment in a line: BJ-TERT fibroblast viability loss – cell-based, RAS-independent, luminescence, dose response (AID 1933). In kind it is functional. The conditions noted are these: Homo sapiens.
Assay [3] concerns the target Dual specificity tyrosine-phosphorylation-regulated kinase 1A (Rattus norvegicus, UniProt Q63470). In kind it is biochemical, Homo sapiens.
Assay [4] deals with BJ. In words: BJ-TERT-LT-ST fibroblast viability loss – cell-based, RAS-independent, luminescence, dose response (AID 1935).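 Note: BJ fibroblasts immortalized with TERT plus LT and ST oncogenes.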 In kind it is functional. The settings on record: Homo sapiens.
In assay [5] the test system is BJ. The experiment in a line: cells. In kind it is functional, cell-based. The conditions noted are these: Homo sapiens.
Assay [6] can be described thus: DRD fibroblast viability loss – cell-based, non-viral oncogenic, luminescence, dose response (AID 1934). In kind it is functional. The settings on record: Homo sapiens.
Assay [7] can be described thus: toxicity toward immortalized ovarian surface epithelium – cell-based, plate reader, dry powder samples, cytotoxicity control for PAX8 inhibitor project, dose response (AID 743045). In kind it is functional.
Assay [8] can be described thus: A2780 cell killing – plate reader, dry powder samples, cytotoxicity control, dose response (AID 743046). Format: functional, cell-based.
The nature of assay [9]: luciferase reporter signal reduction – luminescence, H4-C neuroglioblastoma cells, dose response (AID 2458).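 Note: H4 neuroglioblastoma cells stably carrying a luciferase reporter gene fusion.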 Format: functional, cell-based. (Reporter assays use an easily measured gene product as a stand-in for the process of interest.)
The nature of assay [10]: HEK-293T viability loss after treatment – luminescence, T-cell screen hits, cytotoxicity control for TCR NF-kB inhibitor project, dose response (AID 489026).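 Note: cells exposed to compound about 14 hours before the viability readout.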 Format: functional, cell-based.
Assay [11] in a line: COV434 cell viability loss – plate reader, dry powder, SA7, cytotoxicity control for PAX8 inhibitor project, dose response (AID 743145). In kind it is functional, cell-based.
A short description of assay [12]: Luminescence-based dose response cell-based high throughput screening assay for cytotoxic compounds using the IEC-6 intestinal epithelial cell line. [Related pubchem assays: 1858 (Summary AID.), 1825 (Counterscreen.), 1907 (Confirmation screen.)]. In kind it is functional.
Assay [13] can be described thus: alpha-synuclein stem-loop luciferase translation blockers – H4 neuroglioma cells, luminescence, confirmation (AID 1988). In kind it is functional, cell-based.
Assay [14] in a line: IGROV1 cell killing – plate reader, dry powder samples, PAX8 inhibitor project, dose response (AID 743043). The conditions noted are these: IGROV-1. Format: functional, cell-based.
Assay [15] can be described thus: OV-90 cell viability loss – plate reader, dry powder, SA8, PAX8 inhibitor project, dose response (AID 743149). Format: functional, cell-based.
In assay [16] the target is T1, Cysteine protease ATG4B (Homo sapiens, UniProt Q9Y4P1).
T1 sequence (Q9Y4P1 whole entry): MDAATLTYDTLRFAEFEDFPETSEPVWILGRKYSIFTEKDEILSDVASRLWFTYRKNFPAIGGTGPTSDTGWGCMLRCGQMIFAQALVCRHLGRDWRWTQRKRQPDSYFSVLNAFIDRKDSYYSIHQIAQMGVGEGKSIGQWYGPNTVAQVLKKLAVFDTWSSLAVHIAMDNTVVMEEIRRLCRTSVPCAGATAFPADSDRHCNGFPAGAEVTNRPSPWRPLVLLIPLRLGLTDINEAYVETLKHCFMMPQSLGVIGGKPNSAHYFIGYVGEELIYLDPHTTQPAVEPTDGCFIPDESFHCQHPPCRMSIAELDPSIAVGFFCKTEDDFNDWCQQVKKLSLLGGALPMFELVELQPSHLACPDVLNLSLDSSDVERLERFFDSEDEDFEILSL
The experiment in a line: autophagin-1 cysteine protease inhibition – biochemical, fluorescence, set 2, dose response (AID 588584). In kind it is functional.

Assay [17] deals with Phospholipase A2 (Homo sapiens, UniProt P04054). The experiment in a line: phospholipase A2 activity inhibition – biochemical, set 2, counter-screen for ATG4B inhibitor project, dose response (AID 588586). In kind it is functional.
Phospholipase A2, sequence (P04054 whole entry): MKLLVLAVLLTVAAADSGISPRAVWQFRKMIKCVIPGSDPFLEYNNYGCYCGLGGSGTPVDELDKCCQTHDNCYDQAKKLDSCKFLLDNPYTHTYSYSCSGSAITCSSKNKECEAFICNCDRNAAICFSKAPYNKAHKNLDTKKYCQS
Assay [18] has as its target Paired box protein Pax-8 (Homo sapiens, UniProt Q06710). In words: PAX8 transcriptional activity inhibition in RMG-I – RMG-I cells, luciferase, cherry-pick, dose response (AID 687027).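 Note: luciferase reporter driven by Pax8 target thyroperoxidase promoter measured by SteadyGlo luminescence.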 Format: functional, cell-based.
The nature of assay [19]: inhibitors acting on PAX2 in cells – cell-based, plate reader, dry powder samples, selectivity assay for PAX8 inhibitor project, dose response (AID 743048).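 Note: HEK293 cells carrying a WT1 promoter luciferase reporter driven by expressed Pax2; potency is for inhibition of Pax2 driven reporter signal.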 In kind it is functional.
Assay [20] in a line: PAX8-dependent cell viability loss – plate reader, dry powder, dose response (AID 743049). Format: functional, cell-based.
The nature of assay [21]: PAX5 cellular inhibition readout – cell-based, plate reader, dry powder samples, selectivity assay for PAX8 inhibitor project, dose response (AID 743047).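 Note: HEK293 cells carrying a Pax5 driven CD19 promoter luciferase reporter; potency of inhibitors that lower reporter luminescence.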 In kind it is functional.
A short description of assay [22]: cells. Format: functional, cell-based.
Assay [23] can be described thus: alpha-synuclein stem-loop translation blockers – luminescence, H4 neuroglioblastoma cells, dose confirmation, confirmation (AID 2454).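 Note: H4 neuroglioblastoma cells carrying an alpha-synuclein 5'UTR luciferase reporter; potency for inhibition of the luciferase signal.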 Format: functional, cell-based.
Assay [24] in a line: OVCAR-3 cell viability loss – plate reader, dry powder samples, PAX8 inhibitor project, dose response (AID 743044). Format: functional, cell-based.
The nature of assay [25]: COV362 cell viability loss – plate reader, dry powder, SA12, cytotoxicity control for PAX8 inhibitor project, dose response (AID 743144). In kind it is functional, cell-based.
The nature of assay [26]: OVCAR4 cell viability loss – plate reader, dry powder, SA11, cytotoxicity control for PAX8 inhibitor project, dose response (AID 743150). The settings on record: OVCAR-4. Format: functional, cell-based.

Structures are written as SMILES. Calls of active or inactive are those of the source.

Paired box protein Pax-8, sequence (Q06710 whole entry): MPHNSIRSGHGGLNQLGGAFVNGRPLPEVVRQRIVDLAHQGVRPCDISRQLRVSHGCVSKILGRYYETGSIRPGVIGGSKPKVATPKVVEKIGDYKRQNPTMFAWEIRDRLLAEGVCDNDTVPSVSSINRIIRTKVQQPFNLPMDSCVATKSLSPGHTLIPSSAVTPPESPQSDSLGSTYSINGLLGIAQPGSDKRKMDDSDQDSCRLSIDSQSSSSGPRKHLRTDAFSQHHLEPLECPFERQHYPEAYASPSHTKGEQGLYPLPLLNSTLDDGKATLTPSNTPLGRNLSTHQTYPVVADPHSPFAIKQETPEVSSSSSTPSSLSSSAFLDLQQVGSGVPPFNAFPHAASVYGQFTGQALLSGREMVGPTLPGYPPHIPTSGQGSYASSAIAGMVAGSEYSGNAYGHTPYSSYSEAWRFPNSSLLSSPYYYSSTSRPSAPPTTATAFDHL

In the case of `COc1ccc2[nH]c(C(=O)N/N=C/c3ccc(OC)c(O)c3)cc2c1`, in [1], the IC50 was 20400 nM (not active). Also, the EC50 is 1890 nM (active) in assay [2], 50500 nM (inconclusive) in [4], 59500 nM (inconclusive) in assay [5] and 41700 nM (inconclusive) in [6]. In addition, in assay [3], the half-maximal activity concentration (AC50) is 1040 nM (active).

As for `CCCC1=Nc2cc(C(=O)NCCCOCC)ccc2Sc2ccccc21`, the AC50 in assay [7] was 1220 nM (active); in assay [8] it was 5660 nM (active); in assay [11], 1300 nM (active); in [14], 7990 nM (active); in assay [15] it was 1360 nM (active); in assay [18], 1740 nM (active). Further, the AC50 in [19] was 64000 nM (active); in [20], 7230 nM (active); in [21] it was 1480 nM (active); in assay [24], 5370 nM (active); in assay [25] it was 1420 nM (active); in assay [26], 885 nM (active). Also, the EC50 in [2] was 586 nM (inconclusive); in [9] it was 592 nM (active); in [13] it was < 100 nM (active); in assay [4] it was 607 nM (inconclusive); in [5], 863 nM (inconclusive); in [22], 985 nM (active). Moreover, the EC50 in [23] is 836 nM (active); in [6], 740 nM (inconclusive). Moreover, the IC50 was > 80000 nM (inactive) in [10], 389 nM (active) in assay [12], 49000 nM (inactive) in assay [16] and 48900 nM (inactive) in assay [17].

The term IC50 denotes the midpoint of a concentration-inhibition curve. What is called EC50 is the midpoint of the concentration-response curve. What is called AC50 is the concentration at which the activity in the assay is half-maximal.

The values above are taken from ChEMBL document CHEMBL1201862, “PubChem BioAssay data set” (2004).
